Source: a polymer gas permeability compilation

Compound	CH4 permeability [Barrer]	CO2 permeability [Barrer]	N2 permeability [Barrer]	O2 permeability [Barrer]	H2 permeability [Barrer]
*/N=C1/c2cc(C(c3ccc4c(c3)C(=O)n3c-4nc4c(Oc5ccc(*)c(*)c5)cccc43)(C(F)(F)F)C(F)(F)F)ccc2C(=O)N1* (repeat unit)	0.54	27.6	1.22	7.9	–
*=CC1CC(C=*)C2C(=O)N(C34CC5CC(CC(C5)C3)C4)C(=O)C12 (repeat unit)	0.58	8.39	0.5	1.59	12.8
*=CC1CC(C=*)C2C(=O)N(C3CCCC3)C(=O)C12 (repeat unit)	0.54	8.8	0.45	1.95	–
*=CC1CC(C=*)C2C(=O)N(C3CCCCC3)C(=O)C12 (repeat unit)	0.8	13.7	0.52	2.21	16.1
*=CC1CC(C=*)C2C(=O)N(c3ccccc3)C(=O)C12 (repeat unit)	0.54	11.4	0.31	1.44	11
*=CC1CC(C=*)C2C1C([Si](O[Si](C)(C)C)(O[Si](C)(C)C)O[Si](C)(C)C)C2[Si](O[Si](C)(C)C)(O[Si](C)(C)C)O[Si](C)(C)C (repeat unit)	300	1160	100	295	690
*C(C)=C(*)CCCCCC (repeat unit)	64	230	23	60	140
*C(C)=C(*)CCCCCCC (repeat unit)	83.5	290	29	72.5	145
*C(C)=C(*)c1ccccc1 (repeat unit)	5.2	174	12.2	36.8	199
*C(F)(F)C1(F)OC(F)(F)C(F)(F)C1(F)C(*)(F)F (repeat unit)	2	35	5	16	59
*C/C(C)=C(\C)C* (repeat unit)	0.786	7.47	0.472	2.1	17
*C/C=C(/C)C* (repeat unit)	29.6	153	8.75	23.3	49
*C/C=C(/Cl)C* (repeat unit)	3.28	25.6	2.07	4	20.6
*C1C(*)C2CC1C1CC([Si](C)(C)C)C21 (repeat unit)	1010	5300	390	990	2060
*C1C(*)C2CC1C1C[CH]([Ge]([CH3])([CH3])[CH3])C21 (repeat unit)	620	–	–	–	–
*C=C(*)C(C)(C)C (repeat unit)	85	560	43	130	–
*C=CCCC* (repeat unit)	430	2000	100	310	415
*CC(*)(C)C(=O)OC (repeat unit)	0.00565	0.35	0.0113	0.0885	4.1
*CC(*)(C)C(=O)OC(C)(C)C (repeat unit)	0.719	15.1	0.768	4.53	62.2
*CC(*)(C)C(=O)OCCOCCOCC (repeat unit)	11.4	133	3.6	11.4	–
*CC(*)(C)C(=O)OCCOCCOCCOCC (repeat unit)	4.8	74.4	2	3.9	–
*CC(*)C(=O)OCC(F)(F)C(F)(F)C(F)(F)C(F)(F)C(F)(F)C(F)(F)C(F)(F)F (repeat unit)	57	520	54	135	300
*CC(*)C(=O)OCCCCCCCCCCCCCC (repeat unit)	65.1	297	22.1	57.1	96.2
*CC(*)Cl (repeat unit)	0.0263	0.16	0.0109	0.0453	1.79
*CC(*)OC(=O)c1cccc(C)c1 (repeat unit)	0.118	2.13	0.0875	0.496	–

Compound	CH4 permeability [Barrer]	CO2 permeability [Barrer]	N2 permeability [Barrer]	O2 permeability [Barrer]	H2 permeability [Barrer]
*CC(*)OC(=O)c1ccccc1C (repeat unit)	0.115	2.23	0.0859	0.47	–
*CC(*)c1ccc(Br)cc1 (repeat unit)	0.48	8.5	0.32	1.9	–
*CC(*)c1ccc(C(C)(C)C)cc1 (repeat unit)	16.7	140	8.4	35.5	–
*CC(*)c1ccc(C[Si](C)(C)C)cc1 (repeat unit)	7.8	79.8	–	19.9	54
*CC(*)c1ccc(F)cc1 (repeat unit)	1.06	17.2	0.83	4.4	–
*CC(*)c1ccc(S(=O)(=O)[O-])cc1 (repeat unit)	0.119	4.15	0.101	0.845	10.8
*CC(*)c1ccc([Si](C)(C)CCCC(F)(F)F)cc1 (repeat unit)	22	284	11.8	38.1	109
*CC(*)c1ccccc1 (repeat unit)	0.785	12.4	0.53	2.9	26.1
*CC(*)c1ccncc1 (repeat unit)	0.14	3.31	0.13	0.84	12.6
*CC(C)C(=O)OCCOC(=O)C(C)C* (repeat unit)	4.8	95	1.6	4.7	15
*CC(C)O* (repeat unit)	34	190	11	28	42
*CC(O)C* (repeat unit)	0.019	0.4	0.015	0.1	–
*CC=C(C*)[Si](C)(C)OC(C)C (repeat unit)	3.1	23.2	1.5	6	–
*CC=C(C*)[Si](C)(OC(C)C)OC(C)C (repeat unit)	63.2	345	25.4	69.2	–
*CC=C(C*)[Si](OC(C)C)(OC(C)C)OC(C)C (repeat unit)	263	1230	109	247	–
*CCO* (repeat unit)	4.85	40.5	1.32	4.34	6.9
*CN1CN(*)Cc2cc3c(cc21)C1c2ccccc2C3c2cc(*)c(*)cc21 (repeat unit)	562	6830	409	1900	6390
*CN1CN(*)c2cc3c(cc21)C1(C)CCC3(C)c2cc(*)c(*)cc21 (repeat unit)	222	–	187	933	4440
*C[Si](*)(C)C (repeat unit)	130	549	38	99	–
*Nc1c(C)cc(Cc2cc(C)c(NC(=O)c3ccc(Oc4cc(C(C)(C)C)c(Oc5ccc(C(*)=O)cc5)cc4C(C)(C)C)cc3)c(C(C)C)c2)cc1C(C)C (repeat unit)	1.21	27	1.18	6.47	–
*Nc1ccc(*)cc1 (repeat unit)	0.0094	0.67	0.0165	0.135	3.66
*Nc1ccc(C(C)(C)c2ccc(NC(=O)c3ccc(Oc4cc(C(C)(C)C)c(Oc5ccc(C(*)=O)cc5)cc4C(C)(C)C)cc3)c(C)c2)cc1C (repeat unit)	0.9	21	0.81	4.5	–
*Nc1ccc(C(C)(C)c2ccc(NC(=O)c3ccc(Oc4cc(C(C)(C)C)c(Oc5ccc(C(*)=O)cc5)cc4C(C)(C)C)cc3)cc2)cc1 (repeat unit)	0.47	13	0.46	3.11	–
*Nc1ccc(C(c2ccc(NC(=O)c3cc(C(*)=O)cc(-c4ccccc4)c3)cc2)(C(F)(F)F)C(F)(F)F)cc1 (repeat unit)	0.78	21	1.2	5.5	42
*Nc1ccc(Cc2ccc(NC(=O)CN3C(=O)c4ccc(C(*)=O)cc4C3=O)cc2)cc1 (repeat unit)	0.01	0.264	0.017	0.065	–
